Measurements from patent US11713344B2 (DONG-A ST CO., LTD., priority 2017, dated 2023).

How the values were obtained:
Human GLP-1 receptors = Human GLP-1 receptors (Homo sapiens, UniProt P43220); assay: GLP-1 receptor activation assay (CRE-luciferase reporter, CHO-K1)
Human glucagon receptors = Human glucagon receptors (Homo sapiens, UniProt P47871); assay: Glucagon receptor activation assay (CRE-luciferase reporter, CHO-K1)
Human glucagon receptors, sequence (P47871 26-477): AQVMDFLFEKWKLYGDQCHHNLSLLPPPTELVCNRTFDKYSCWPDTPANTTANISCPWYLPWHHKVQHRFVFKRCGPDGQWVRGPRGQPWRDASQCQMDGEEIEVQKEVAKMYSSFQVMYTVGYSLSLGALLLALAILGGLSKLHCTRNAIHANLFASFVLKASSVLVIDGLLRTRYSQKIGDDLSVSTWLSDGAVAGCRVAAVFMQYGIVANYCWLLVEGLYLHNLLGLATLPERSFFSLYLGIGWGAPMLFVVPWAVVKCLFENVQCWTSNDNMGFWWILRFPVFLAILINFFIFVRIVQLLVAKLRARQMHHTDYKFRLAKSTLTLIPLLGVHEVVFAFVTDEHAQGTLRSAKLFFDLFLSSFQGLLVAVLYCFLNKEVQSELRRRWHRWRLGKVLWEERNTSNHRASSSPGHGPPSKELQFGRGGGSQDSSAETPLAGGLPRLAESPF
Procedure: Then, the resulting increased luciferase activity was evaluated as a measurement of the effect on each receptor activation.
After 3 hours of transfection, medium was exchanged to Alpha Minimal Essential Medium (α-MEM) comprising 10% fetal bovine serum (FBS). Next day, the medium was exchanged to α-MEM comprising the analog of the present invention and 0.1% bovine serum albumin (BSA). After 6 hours, dual luciferase assay reagent was added in the same amount as the medium in which the cells were submerged, and firefly luciferase and Renilla luciferase activities were continuously measured. Firefly luciferase activity values were corrected against Renilla luciferase activity to yield transfection efficiency.

Human GLP-1 receptors, sequence (P43220 24-463): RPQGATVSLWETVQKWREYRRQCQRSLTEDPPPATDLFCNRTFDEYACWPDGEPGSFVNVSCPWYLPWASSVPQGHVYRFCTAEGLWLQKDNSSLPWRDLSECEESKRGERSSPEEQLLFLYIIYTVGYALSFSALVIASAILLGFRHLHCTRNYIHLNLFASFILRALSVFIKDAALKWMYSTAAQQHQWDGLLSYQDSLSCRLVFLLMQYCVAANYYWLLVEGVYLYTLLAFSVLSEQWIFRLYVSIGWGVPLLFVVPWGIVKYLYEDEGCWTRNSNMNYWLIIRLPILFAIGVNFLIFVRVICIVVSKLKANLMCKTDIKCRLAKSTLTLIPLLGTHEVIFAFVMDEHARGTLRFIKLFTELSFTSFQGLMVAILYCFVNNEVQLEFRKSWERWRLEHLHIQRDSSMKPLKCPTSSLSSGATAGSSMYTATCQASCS

Row | SMILES | EC50 (Human GLP-1 receptors) [nM] | EC50 (Human glucagon receptors) [nM]
1 | CCCCCCCCCCCCCCCCCC(=O)N[C@@H](CCC(=O)NCCOCCOCC(=O)NCCOCCOCC(=O)NCCCC[C@H](NC(=O)[C@H](CC(=O)O)NC(=O)[C@H](CO)NC(=O)[C@@H](NC(=O)[C@H](Cc1ccccc1)NC(=O)[C@@H](NC(=O)CNC(=O)[C@H](CCC(N)=O)NC(=O)C(C)(C)NC(=O)[C@@H](N)Cc1c[nH]cn1)[C@@H](C)O)[C@@H](C)O)C(=O)N[C@@H](CO)C(=O)N[C@@H](CCCCN)C(=O)N[C@@H](Cc1ccc(O)cc1)C(=O)N[C@@H](CC(C)C)C(=O)N[C@@H](CC(=O)O)C(=O)N[C@H]1CCC(=O)NCCCC[C@@H](C(=O)N[C@@H](CC(=O)O)C(=O)N[C@@H](Cc2ccccc2)C(=O)N[C@H](C(=O)N[C@@H](CCC(N)=O)C(=O)N[C@@H](Cc2c[nH]c3ccccc23)C(=O)N[C@@H](CC(C)C)C(=O)N[C@@H](CCSC)C(=O)N[C@@H](CC(N)=O)C(=O)N[C@H](C(=O)N[C@@H](CCCCN)C(N)=O)[C@@H](C)O)C(C)C)NC(=O)[C@H](C)NC(=O)[C@H](CCCNC(=N)N)NC(=O)[C@H](CCCNC(=N)N)NC1=O)C(=O)O [Compound 19, H-HAibQGTFTSDZSKYLDERRAKDFVQWLMNTK-NH2] | < 0.01 | < 0.01
2 | CCCCCCCCCCCCCCCCCC(=O)N[C@@H](CCC(=O)NCCOCCOCC(=O)NCCOCCOCC(=O)NCCOCCOCC(=O)NCCCC[C@H](NC(=O)[C@H](CC(=O)O)NC(=O)[C@H](CO)NC(=O)[C@@H](NC(=O)[C@H](Cc1ccccc1)NC(=O)[C@@H](NC(=O)CNC(=O)[C@H](CCC(N)=O)NC(=O)C(C)(C)NC(=O)[C@@H](N)Cc1c[nH]cn1)[C@@H](C)O)[C@@H](C)O)C(=O)N[C@@H](CO)C(=O)N[C@@H](CCCCN)C(=O)N[C@@H](Cc1ccc(O)cc1)C(=O)N[C@@H](CC(C)C)C(=O)N[C@@H](CC(=O)O)C(=O)N[C@H]1CCC(=O)NCCCC[C@@H](C(=O)N[C@@H](CC(=O)O)C(=O)N[C@@H](Cc2ccccc2)C(=O)N[C@H](C(=O)N[C@@H](CCC(N)=O)C(=O)N[C@@H](Cc2c[nH]c3ccccc23)C(=O)N[C@@H](CC(C)C)C(=O)N[C@@H](CCSC)C(=O)N[C@@H](CC(N)=O)C(=O)N[C@H](C(=O)N[C@@H](CCCCN)C(=O)O)[C@@H](C)O)C(C)C)NC(=O)[C@H](C)NC(=O)[C@H](CCCNC(=N)N)NC(=O)[C@H](CCCNC(=N)N)NC1=O)C(=O)O [Compound 20, H-HAibQGTFTSDZSKYLDERRAKDFVQWLMNTK-OH] | < 0.01 | < 0.01
3 | CCCCCCCCCCCCCCCCCC(=O)N[C@@H](CCC(=O)NCCOCCOCC(=O)NCCOCCOCC(=O)NCCCC[C@H](NC(=O)[C@H](CC(=O)O)NC(=O)[C@H](CO)NC(=O)[C@@H](NC(=O)[C@H](Cc1ccccc1)NC(=O)[C@@H](NC(=O)CNC(=O)[C@H](CCC(N)=O)NC(=O)C(C)(C)NC(=O)[C@@H](N)Cc1c[nH]cn1)[C@@H](C)O)[C@@H](C)O)C(=O)N[C@@H](CO)C(=O)N[C@@H](CCCCN)C(=O)N[C@@H](Cc1ccc(O)cc1)C(=O)N[C@@H](CC(C)C)C(=O)N[C@@H](CC(=O)O)C(=O)N[C@H]1CSCc2cccc(c2)CSC[C@@H](C(=O)N[C@@H](CC(=O)O)C(=O)N[C@@H](Cc2ccccc2)C(=O)N[C@H](C(=O)N[C@@H](CCC(N)=O)C(=O)N[C@@H](Cc2c[nH]c3ccccc23)C(=O)N[C@@H](CC(C)C)C(=O)N[C@@H](CCSC)C(=O)N[C@@H](CC(N)=O)C(=O)N[C@H](C(=O)N[C@@H](CCCCN)C(=O)O)[C@@H](C)O)C(C)C)NC(=O)[C@H](C)NC(=O)[C@H](CCCNC(=N)N)NC(=O)[C@H](CCCNC(=N)N)NC1=O)C(=O)O [Compound 22, H-HAibQGTFTSDZSKYLDCRRACDFVQWLMNTK-OH] | < 0.01 | < 0.01
4 | CCCCCCCCCCCCCCCCCC(=O)N[C@@H](CCC(=O)NCCOCCOCC(=O)NCCOCCOCC(=O)NCCOCCOCC(=O)NCCOCCOCC(=O)NCCCC[C@H](NC(=O)[C@H](CC(=O)O)NC(=O)[C@H](CO)NC(=O)[C@@H](NC(=O)[C@H](Cc1ccccc1)NC(=O)[C@@H](NC(=O)CNC(=O)[C@H](CCC(N)=O)NC(=O)C(C)(C)NC(=O)[C@@H](N)Cc1c[nH]cn1)[C@@H](C)O)[C@@H](C)O)C(=O)N[C@@H](CO)C(=O)N[C@@H](CCCCN)C(=O)N[C@@H](Cc1ccc(O)cc1)C(=O)N[C@@H](CC(C)C)C(=O)N[C@@H](CC(=O)O)C(=O)N[C@H]1CCC(=O)NCCCC[C@@H](C(=O)N[C@@H](CC(=O)O)C(=O)N[C@@H](Cc2ccccc2)C(=O)N[C@H](C(=O)N[C@@H](CCC(N)=O)C(=O)N[C@@H](Cc2c[nH]c3ccccc23)C(=O)N[C@@H](CC(C)C)C(=O)N[C@@H](CCSC)C(=O)N[C@@H](CC(N)=O)C(=O)N[C@H](C(=O)N[C@@H](CCCCN)C(N)=O)[C@@H](C)O)C(C)C)NC(=O)[C@H](C)NC(=O)[C@H](CCCNC(=N)N)NC(=O)[C@H](CCCNC(=N)N)NC1=O)C(=O)O [Compound 24, H-HAibQGTFTSDZSKYLDERRAKDFVQWLMNTK-NH2] | < 0.01 | 0.01 to 0.1
5 | CCCCCCCCCCCCCCCCCC(=O)N[C@@H](CCC(=O)NCCOCCOCC(=O)NCCOCCOCC(=O)NCCOCCOCC(=O)NCCOCCOCC(=O)NCCCC[C@H](NC(=O)[C@H](CC(=O)O)NC(=O)[C@H](CO)NC(=O)[C@@H](NC(=O)[C@H](Cc1ccccc1)NC(=O)[C@@H](NC(=O)CNC(=O)[C@H](CCC(N)=O)NC(=O)C(C)(C)NC(=O)[C@@H](N)Cc1c[nH]cn1)[C@@H](C)O)[C@@H](C)O)C(=O)N[C@@H](CO)C(=O)N[C@@H](CCCCN)C(=O)N[C@@H](Cc1ccc(O)cc1)C(=O)N[C@@H](CC(C)C)C(=O)N[C@@H](CC(=O)O)C(=O)N[C@H]1CCC(=O)NCCCC[C@@H](C(=O)N[C@@H](CC(=O)O)C(=O)N[C@@H](Cc2ccccc2)C(=O)N[C@H](C(=O)N[C@@H](CCC(N)=O)C(=O)N[C@@H](Cc2c[nH]c3ccccc23)C(=O)N[C@@H](CC(C)C)C(=O)N[C@@H](CCSC)C(=O)N[C@@H](CC(N)=O)C(=O)N[C@H](C(=O)N[C@@H](CCCCN)C(=O)O)[C@@H](C)O)C(C)C)NC(=O)[C@H](C)NC(=O)[C@H](CCCNC(=N)N)NC(=O)[C@H](CCCNC(=N)N)NC1=O)C(=O)O [Compound 25, H-HAibQGTFTSDZSKYLDERRAKDFVQWLMNTK-OH] | < 0.01 | < 0.01
6 | CCCCCCCCCCCCCCCCCC(=O)N[C@@H](CCC(=O)NCCOCCOCC(=O)NCCOCCOCC(=O)NCCCC[C@H](NC(=O)[C@H](CC(=O)O)NC(=O)[C@H](CO)NC(=O)[C@@H](NC(=O)[C@H](Cc1ccccc1)NC(=O)[C@@H](NC(=O)CNC(=O)[C@H](CCC(N)=O)NC(=O)C(C)(C)NC(=O)[C@@H](N)Cc1c[nH]cn1)[C@@H](C)O)[C@@H](C)O)C(=O)N[C@@H](CO)C(=O)N[C@@H](CCCCN)C(=O)N[C@@H](Cc1ccc(O)cc1)C(=O)N[C@@H](CC(C)C)C(=O)N[C@@H](CC(=O)O)C(=O)N[C@H]1CC(=O)NCCCC[C@@H](C(=O)N[C@@H](CC(=O)O)C(=O)N[C@@H](Cc2ccccc2)C(=O)N[C@H](C(=O)N[C@@H](CCC(N)=O)C(=O)N[C@@H](Cc2c[nH]c3ccccc23)C(=O)N[C@@H](CC(C)C)C(=O)N[C@@H](CCSC)C(=O)N[C@@H](CC(N)=O)C(=O)N[C@H](C(=O)N[C@@H](CCCCN)C(=O)O)[C@@H](C)O)C(C)C)NC(=O)[C@H](C)NC(=O)[C@H](CCCNC(=N)N)NC(=O)[C@H](CCCNC(=N)N)NC1=O)C(=O)O [Compound 26, H-HAibQGTFTSDZSKYLDDRRAKDFVQWLMNTK-OH] | < 0.01 | < 0.01
